Measurements published in patent US20240148821A1, “PHARMACEUTICAL USE OF CYCLIC PEPTIDE COMPOUND” (CHUGAI SEIYAKU KABUSHIKI KAISHA, priority 2021, published 2024).
Numbered stars: 1 amine (or outer) side, 2 acyl side, 3 side chain; on linkers, the order of the positions; unused ones are H or OH. Bridge positions count the residues as written; N and C are the ends. Square brackets hold non-standard residues; d marks the D form. Peptide text beside a SMILES is read from it. * marks the point of attachment. hPhe(3,5-F2-4-CF3) = N[C@@H](CCc1cc(F)c(C(F)(F)F)c(F)c1)C(=O)O; hPhe(3-Cl-4-CF3) = N[C@@H](CCc1ccc(C(F)(F)F)c(Cl)c1)C(=O)O; hPhe(3-F,4-CF3) = N[C@@H](CCc1ccc(C(F)(F)F)c(F)c1)C(=O)O; NEtPhe(4-CF3) = CCN[C@@H](Cc1ccc(C(F)(F)F)cc1)C(=O)O; NMePhe(4-CF3) = CN[C@@H](Cc1ccc(C(F)(F)F)cc1)C(=O)O; NEtPhe(4-Me) = CCN[C@@H](Cc1ccc(C)cc1)C(=O)O; NMePhe(4-Cl) = CN[C@@H](Cc1ccc(Cl)cc1)C(=O)O; NMePhe(4-Me) = CN[C@@H](Cc1ccc(C)cc1)C(=O)O; NMedβ3hAla = C[C@H](CC(=O)[*:2])N(C)[*:1]; NMeAla(cPent) = CN[C@@H](CC1CCCC1)C(=O)O; NMeGly(cPent) = CN[C@H](C(=O)O)C1CCCC1; Pro(4,4-F2) = O=C(O)[C@@H]1CC(F)(F)CN1; NMeCha = CN[C@@H](CC1CCCCC1)C(=O)O; Hyp = O=C(O)[C@@H]1C[C@@H](O)CN1; NMeChg = CN[C@H](C(=O)O)C1CCCCC1; NMeI = CC[C@H](C)[C@H](NC)C(=O)O; NMeD = CN[C@@H](CC(=O)O)C(=O)O; NMeL = CN[C@@H](CC(C)C)C(=O)O; NMeV = CN[C@H](C(=O)O)C(C)C; d(β3hA) = C[C@@H](N)CC(=O)O; NMeS = CN[C@@H](CO)C(=O)O; Morpholide = C1CN(*)CCO1; NMeA = CN[C@@H](C)C(=O)O; NMeAib = CNC(C)(C)C(=O)O; Piperidide = C1CCN(*)CC1; dNMeA = CN[C@H](C)C(=O)O; Ac5c = NC1(C(=O)O)CCCC1; Aze = O=C(O)[C@@H]1CCN1; Ac4c = NC1(C(=O)O)CCC1; Isopentyl = CC(C)CC*; Sar = CNCC(=O)O; Propyl = CCC*

Assays:
[1] = system: Human pancreatic cancer cell line AsPC-1 (G12D mutation Kras); test: AsPC-1 cell growth inhibition (AsPC-1 CGI); assay type: cell-based; settings: read-out: AsPC-1 cell growth inhibition, 50% growth inhibitory concentration (IC50 value); 96 hours, CellTiter-Glo, values classified in ranges
Method: Test compounds were serially dilated with dimethyl sulfoxide, and 200 nL was then dispensed to a U-bottom 96-well plate using Labcyte Echo. […] The cell suspension was dispensed to a. plate containing a test compound at 100 μL per well and incubated at 37° C. in a 5% carbon dioxide gas incubator. 96 hours later, 80 μL of CellTiter-Glo (Promega) was added to each well and fluorescence was measured.

[2] = target: protein-protein interaction between Kras and SOS1 (biotin-tagged human Kras loaded with GDP, His-tagged human SOS1) (Homo sapiens (Human), UniProt P01116, G12D); test: Protein-protein interaction inhibition between Kras and SOS1 (KrasG12D-SOS PPI) using AlphaScreen; assay type: biochemical; settings: AlphaScreen; biotin-tagged human Kras loaded with GDP, His-tagged human SOS1; read-out: KRAS G12D-SOS PPI IC50;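 further: kras produced in E. coli, Ni-coupled donor beads and streptavidin acceptor beads, excitation 680 nm with emission detected at 520–620 nm via singlet oxygen transfer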

Compound	IC50 [1] [nM]	IC50 [2] [nM]
CCO[C@@H]1C[C@H]2C(=O)NC3(CCC3)C(=O)N(C)[C@@H](C3CCCC3)C(=O)N(C)[C@H](C)CC(=O)N(C)[C@@H](CC(C)C)C(=O)N[C@@H]([C@@H](C)CC)C(=O)N(C)[C@@H](C)C(=O)N3CC[C@H]3C(=O)N(CC)[C@@H](Cc3ccc(C(F)(F)F)cc3)C(=O)N(C)CC(=O)N[C@@H](CCc3ccc(C(F)(F)F)c(Cl)c3)C(=O)N2C1 [Compound 594] (cyclo([Ac4c][NMeGly(cPent)][NMedβ3hAla][NMeL]I[NMeA][Aze][NEtPhe(4-CF3)][Sar][hPhe(3-Cl-4-CF3)][Hyp](Et)))	≤ 20	0.54
CC[C@H](C)[C@@H]1NC(=O)[C@H](CC(C)C)N(C)C(=O)C[C@@H](C)NC(=O)[C@H](C2CCCC2)N(C)C(=O)[C@@H](C(C)C)NC(=O)[C@@H]2CCCN2C(=O)[C@H](CCc2ccc(C(F)(F)F)c(Cl)c2)NC(=O)CN(C)C(=O)[C@H](Cc2ccc(C)cc2)N(C)C(=O)[C@@H]2CCN2C(=O)[C@H](C)N(C)C1=O [Compound 598] (cyclo([Aze][NMePhe(4-Me)][Sar][hPhe(3-Cl-4-CF3)]P[dV][NMeGly(cPent)][d(β3hA)][NMeL]I[NMeA]))	> 500	300
CCO[C@@H]1C[C@H]2C(=O)NC3(CCCC3)C(=O)N(C)[C@@H](C3CCCC3)C(=O)N(C)[C@H](C)CC(=O)N(C)[C@@H](CC(C)C)C(=O)N[C@@H]([C@@H](C)CC)C(=O)N(C)[C@@H](C)C(=O)N3CC[C@H]3C(=O)N(C)[C@@H](Cc3ccc(C(F)(F)F)cc3)C(=O)N(C)CC(=O)N[C@@H](CCc3ccc(C(F)(F)F)c(Cl)c3)C(=O)N2C1 [Compound 640] (cyclo([Ac5c][NMeGly(cPent)][NMedβ3hAla][NMeL]I[NMeA][Aze][NMePhe(4-CF3)][Sar][hPhe(3-Cl-4-CF3)][Hyp](Et)))	≤ 20	0.86
CC[C@H](C)[C@@H]1NC(=O)[C@H](CC(C)C)N(C)C(=O)C[C@@H](C(=O)N2CCCCC2)N(C)C(=O)[C@H](C2CCCCC2)N(C)C(=O)C2(CCCC2)NC(=O)[C@H](CC2CCCC2)N(C)C(=O)[C@H](CCc2ccc(C(F)(F)F)c(Cl)c2)NC(=O)CN(C)C(=O)[C@H](CC2CCCCC2)N(C)C(=O)CN(C)C(=O)CN(C)C1=O [Compound 643] ([NMeL]I[Sar][Sar][NMeCha][Sar][hPhe(3-Cl-4-CF3)][NMeAla(cPent)][Ac5c][NMeChg][NMeD]-Piperidide; lactam N-11)	> 500	27
CC[C@H](C)[C@@H]1NC(=O)[C@H](CC(C)C)NC(=O)C[C@@H](C)NC(=O)[C@H](C2CCCC2)N(C)C(=O)C2(CCCC2)NC(=O)[C@@H]2CCCN2C(=O)[C@H](CCc2ccc(C(F)(F)F)c(Cl)c2)NC(=O)CN(C)C(=O)[C@H](Cc2ccc(C)cc2)N(C)C(=O)[C@@H]2CCN2C(=O)[C@H](C)N(C)C1=O [Compound 648] (cyclo([Ac5c][NMeGly(cPent)][d(β3hA)]LI[NMeA][Aze][NMePhe(4-Me)][Sar][hPhe(3-Cl-4-CF3)]P))	> 500	3.2
CC[C@H](C)[C@@H]1NC(=O)[C@H](COCCC(C)C)N(C)C(=O)C[C@@H](C(=O)N2CCCCC2)N(C)C(=O)[C@H](C(C)C)N(C)C(=O)C2(CCCC2)NC(=O)[C@@H]2CCCN2C(=O)[C@H](CCc2ccc(C(F)(F)F)c(Cl)c2)NC(=O)CN(C)C(=O)[C@H](CC2CCCCC2)N(C)C(=O)[C@@H]2CCN2C(=O)[C@H](C)N(C)C1=O [Compound 661] ([NMeS](Isopentyl)I[NMeA][Aze][NMeCha][Sar][hPhe(3-Cl-4-CF3)]P[Ac5c][NMeV][NMeD]-Piperidide; lactam N-11)	> 500	13
CC[C@H](C)[C@@H]1NC(=O)[C@H](CC(C)C)N(C)C(=O)C[C@@H](C)N(C)C(=O)[C@H]([C@@H](C)CC)N(C)C(=O)C2(CCCC2)NC(=O)[C@@H]2CC(F)(F)CN2C(=O)[C@H](CCc2ccc(C(F)(F)F)c(Cl)c2)NC(=O)CN(C)C(=O)[C@H](Cc2ccc(C(F)(F)F)cc2)N(C)C(=O)[C@@H]2CCN2C(=O)[C@H](C)N(C)C1=O [Compound 668] (cyclo([Ac5c][NMeI][NMedβ3hAla][NMeL]I[NMeA][Aze][NMePhe(4-CF3)][Sar][hPhe(3-Cl-4-CF3)][Pro(4,4-F2)]))	≤ 20	1.9
CC[C@H](C)[C@@H]1NC(=O)[C@H](CC(C)C)N(C)C(=O)C[C@@H](C(=O)N2CCCCC2)N(C)C(=O)[C@H]([C@@H](C)CC)N(C)C(=O)C2(CCCC2)NC(=O)[C@@H]2CCCN2C(=O)[C@H](CCc2ccc(C(F)(F)F)c(F)c2)NC(=O)CN(C)C(=O)[C@H](Cc2ccc(C)cc2)N(C)C(=O)[C@@H]2CCN2C(=O)[C@H](C)N(C)C1=O [Compound 678] ([NMeL]I[NMeA][Aze][NMePhe(4-Me)][Sar][hPhe(3-F,4-CF3)]P[Ac5c][NMeI][NMeD]-Piperidide; lactam N-11)	≤ 20	1.7
CC[C@H](C)[C@@H]1NC(=O)[C@H](CC(C)C)N(C)C(=O)C[C@@H](C)N(C)C(=O)[C@H](CC(C)C)NC(=O)C(C)(C)N(C)C(=O)[C@H](CC(C)C)NC(=O)[C@H](CCc2cc(F)c(C(F)(F)F)c(F)c2)NC(=O)CN(C)C(=O)[C@H](Cc2ccc(Cl)cc2)N(C)C(=O)CN(C)C(=O)CN(C)C1=O [Compound 687] (cyclo(I[Sar][Sar][NMePhe(4-Cl)][Sar][hPhe(3,5-F2-4-CF3)]L[NMeAib]L[NMedβ3hAla][NMeL]))	> 500	16
CCCOC[C@H]1C(=O)N(C)CC(=O)N[C@@H](CCc2ccc(C(F)(F)F)c(Cl)c2)C(=O)N2CCC[C@H]2C(=O)NC2(CCCC2)C(=O)N(C)[C@@H]([C@@H](C)CC)C(=O)N(C)[C@H](C(=O)N2CCCCC2)CC(=O)N(C)[C@@H](CC(C)C)C(=O)N[C@@H]([C@@H](C)CC)C(=O)N(C)[C@@H](C)C(=O)N2CC[C@H]2C(=O)N1C [Compound 690] ([NMeL]I[NMeA][Aze][NMeS](Propyl)[Sar][hPhe(3-Cl-4-CF3)]P[Ac5c][NMeI][NMeD]-Piperidide; lactam N-11)	≤ 20	1.8
CCCOC[C@H]1C(=O)NC2(CCCC2)C(=O)N(C)[C@@H](C2CCCCC2)C(=O)N(C)[C@H](C(=O)N2CCCCC2)CC(=O)N(C)[C@@H](CC(C)C)C(=O)N[C@@H]([C@@H](C)CC)C(=O)N(C)CC(=O)N(C)CC(=O)N(C)[C@@H](CC2CCCCC2)C(=O)N(C)CC(=O)N[C@@H](CCc2ccc(C(F)(F)F)c(Cl)c2)C(=O)N1C [Compound 692] ([NMeL]I[Sar][Sar][NMeCha][Sar][hPhe(3-Cl-4-CF3)][NMeS](Propyl)[Ac5c][NMeChg][NMeD]-Piperidide; lactam N-11)	> 500	6.9
CCCOC[C@H]1C(=O)N(C)CC(=O)N[C@@H](CCc2ccc(C(F)(F)F)c(Cl)c2)C(=O)N2CCC[C@H]2C(=O)NC2(CCCC2)C(=O)N(C)[C@@H]([C@@H](C)CC)C(=O)N(C)[C@H](C(=O)N2CCOCC2)CC(=O)N(C)[C@@H](CC(C)C)C(=O)N[C@@H]([C@@H](C)CC)C(=O)N(C)[C@@H](C)C(=O)N2CC[C@H]2C(=O)N1C [Compound 693] ([NMeL]I[NMeA][Aze][NMeS](Propyl)[Sar][hPhe(3-Cl-4-CF3)]P[Ac5c][NMeI][NMeD]-Morpholide; lactam N-11)	≤ 20	1.6
CCO[C@@H]1C[C@H]2C(=O)NC3(CCCC3)C(=O)N(C)[C@@H]([C@@H](C)CC)C(=O)N(C)[C@H](C)CC(=O)N(C)[C@@H](CC(C)C)C(=O)N[C@@H]([C@@H](C)CC)C(=O)N(C)CC(=O)N(C)CC(=O)N(C)[C@@H](Cc3ccc(C(F)(F)F)cc3)C(=O)N(C)CC(=O)N[C@@H](CCc3ccc(C(F)(F)F)c(Cl)c3)C(=O)N2C1 [Compound 695] (cyclo([Ac5c][NMeI][NMedβ3hAla][NMeL]I[Sar][Sar][NMePhe(4-CF3)][Sar][hPhe(3-Cl-4-CF3)][Hyp](Et)))	≤ 20	2.3
CC[C@H](C)[C@@H]1NC(=O)[C@H](CC(C)C)N(C)C(=O)C[C@@H](C(=O)N2CCCCC2)N(C)C(=O)[C@H](C(C)C)N(C)C(=O)C2(CCCC2)NC(=O)[C@@H]2CCCN2C(=O)[C@H](CCc2ccc(C(F)(F)F)c(Cl)c2)NC(=O)CN(C)C(=O)[C@H](CC2CCCCC2)N(C)C(=O)[C@@H]2CCN2C(=O)[C@@H]2CCCN2C1=O [Compound 709] ([NMeL]IP[Aze][NMeCha][Sar][hPhe(3-Cl-4-CF3)]P[Ac5c][NMeV][NMeD]-Piperidide; lactam N-11)	> 500	41
CCO[C@@H]1C[C@H]2C(=O)NC3(CCC3)C(=O)N(C)[C@@H](C3CCCC3)C(=O)N(C)[C@H](C)CC(=O)N(C)[C@@H](CC(C)C)C(=O)N[C@@H]([C@@H](C)CC)C(=O)N(C)[C@@H](C)C(=O)N3CC[C@H]3C(=O)N(CC)[C@@H](Cc3ccc(C)cc3)C(=O)N(C)CC(=O)N[C@@H](CCc3ccc(C(F)(F)F)c(Cl)c3)C(=O)N2C1 [Compound 713] (cyclo([Ac4c][NMeGly(cPent)][NMedβ3hAla][NMeL]I[NMeA][Aze][NEtPhe(4-Me)][Sar][hPhe(3-Cl-4-CF3)][Hyp](Et)))	≤ 20	4
CC[C@H](C)[C@@H]1NC(=O)[C@H](C)N(C)C(=O)C[C@@H](C(=O)N2CCCCC2)N(C)C(=O)[C@H](C(C)C)N(C)C(=O)C2(CCCC2)NC(=O)[C@H](Cc2ccc(Cl)cc2)N(C)C(=O)[C@H](CCc2ccc(C(F)(F)F)c(Cl)c2)NC(=O)CN(C)C(=O)[C@H](CC2CCCCC2)N(C)C(=O)CN(C)C(=O)CN(C)C1=O [Compound 718] ([NMeA]I[Sar][Sar][NMeCha][Sar][hPhe(3-Cl-4-CF3)][NMePhe(4-Cl)][Ac5c][NMeV][NMeD]-Piperidide; lactam N-11)	> 500	39
CC[C@H](C)[C@@H]1NC(=O)[C@H](C)N(C)C(=O)C[C@@H](C)NC(=O)[C@H](C2CCCC2)N(C)C(=O)C2(CCCC2)NC(=O)[C@@H]2CCCN2C(=O)[C@H](CCc2ccc(C(F)(F)F)c(Cl)c2)NC(=O)[C@@H](C)N(C)C(=O)[C@H](Cc2ccc(Cl)cc2)N(C)C(=O)[C@@H]2CCN2C(=O)[C@H](C)N(C)C1=O [Compound 720] (cyclo([Ac5c][NMeGly(cPent)][d(β3hA)][NMeA]I[NMeA][Aze][NMePhe(4-Cl)][dNMeA][hPhe(3-Cl-4-CF3)]P))	> 500	39
